# In PubChem BioAssay (NCI):
#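 96-well plates; 48 h exposure; 5 concentrations. Endpoints by linear interpolation between flanking doses. Not reached: highest tested concentration assigned. GI50: concentration for 50% inhibition of growth. Definition used: TGI = concentration required for complete inhibition of growth.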
# Tests used:
# Assay in all cases: growth of human tumour cells (NCI), 48 h
# HS 578T breast = system: HS 578T breast
# K-562 leukemia = system: K-562 leukemia
# M14 melanoma = system: M14 melanoma
# MALME-3M melanoma = system: MALME-3M melanoma
# MCF7 breast = system: MCF7 breast
# MDA-MB-435 = system: MDA-MB-435
# OVCAR-4 ovarian = system: OVCAR-4 ovarian
# OVCAR-5 ovarian = system: OVCAR-5 ovarian
# U251 CNS = system: U251 CNS
# UACC-257 melanoma = system: UACC-257 melanoma
Compound,TGI (HS 578T breast),TGI (K-562 leukemia),TGI (M14 melanoma),TGI (MALME-3M melanoma),TGI (MCF7 breast),TGI (MDA-MB-435),TGI (OVCAR-4 ovarian),TGI (OVCAR-5 ovarian),TGI (U251 CNS),TGI (UACC-257 melanoma),GI50 (HS 578T breast),GI50 (K-562 leukemia),GI50 (M14 melanoma),GI50 (MALME-3M melanoma),GI50 (MCF7 breast),GI50 (MDA-MB-435),GI50 (OVCAR-4 ovarian),GI50 (OVCAR-5 ovarian),GI50 (U251 CNS),GI50 (UACC-257 melanoma)
CSc1cccc(NC(=O)OC2CCCCCCCCCCC2)c1,> 100 µM,93.7 µM,59.5 µM,59.1 µM,60.4 µM,39.9 µM,45.6 µM,> 100 µM,41 µM,38.7 µM,–,–,–,–,–,–,–,–,–,–
COc1cc(Cl)cc(-c2nn(-c3cccc(NC(=O)Nc4ccc(Cl)c(C(F)(F)F)c4)c3)cc2-c2ccncc2)c1,67.7 µM,10.1 µM,3.47 µM,8.59 µM,11 µM,4.36 µM,28.8 µM,7.15 µM,2.11 µM,4.93 µM,4.29 µM,0.537 µM,1.33 µM,1.71 µM,1.01 µM,1.76 µM,1.8 µM,2.13 µM,0.729 µM,1.89 µM
Cc1ccc(-c2nc(N3CCCNCC3)c3oc(-c4ccc(C)cc4)nc3n2)cc1,31.9 µM,2.68 µM,3.55 µM,3.61 µM,3.88 µM,3.17 µM,4.67 µM,3.17 µM,3.18 µM,41.1 µM,12.6 µM,0.946 µM,1.85 µM,1.98 µM,1.85 µM,1.78 µM,2.11 µM,1.75 µM,1.76 µM,19.8 µM
CCN(CC)CCOc1ccc(C(=O)/C=C\c2ccc(Cl)cc2Cl)cc1,32 µM,9.13 µM,5 µM,15.3 µM,3.12 µM,7.36 µM,16.6 µM,27.2 µM,21.3 µM,15.2 µM,9.47 µM,2.41 µM,2.17 µM,3.41 µM,1.29 µM,2.56 µM,3.82 µM,10.3 µM,7.16 µM,4.51 µM
N#Cc1cc(S(=O)(=O)Nc2nc3ccccc3s2)c(SCc2ccccc2)cc1Cl,53.8 µM,> 100 µM,37.1 µM,49.6 µM,> 100 µM,49.5 µM,> 100 µM,54.7 µM,38.2 µM,35.2 µM,22.4 µM,38.5 µM,18.9 µM,21.4 µM,30.7 µM,23.8 µM,34.4 µM,23.8 µM,19.2 µM,15.4 µM
